Here are results for six molecules from ChEMBL document CHEMBL3351914, “Finding the perfect spot for fluorine: improving potency up to 40-fold during a rational fluorine scan of a Bruton's Tyrosine Kinase (BTK) inhibitor scaffold” (Bioorg Med Chem Lett, 2015).

The assay addresses Tyrosine-protein kinase BTK (Homo sapiens, UniProt Q06187). Kind of assay: Inhibition of BTK in human whole blood assessed as decrease in CD69 positive cells. The format is cell-based.

One may read the IC50 as the point on the concentration scale where inhibition reaches its midpoint.

Tyrosine-protein kinase BTK, sequence (Q06187 whole entry): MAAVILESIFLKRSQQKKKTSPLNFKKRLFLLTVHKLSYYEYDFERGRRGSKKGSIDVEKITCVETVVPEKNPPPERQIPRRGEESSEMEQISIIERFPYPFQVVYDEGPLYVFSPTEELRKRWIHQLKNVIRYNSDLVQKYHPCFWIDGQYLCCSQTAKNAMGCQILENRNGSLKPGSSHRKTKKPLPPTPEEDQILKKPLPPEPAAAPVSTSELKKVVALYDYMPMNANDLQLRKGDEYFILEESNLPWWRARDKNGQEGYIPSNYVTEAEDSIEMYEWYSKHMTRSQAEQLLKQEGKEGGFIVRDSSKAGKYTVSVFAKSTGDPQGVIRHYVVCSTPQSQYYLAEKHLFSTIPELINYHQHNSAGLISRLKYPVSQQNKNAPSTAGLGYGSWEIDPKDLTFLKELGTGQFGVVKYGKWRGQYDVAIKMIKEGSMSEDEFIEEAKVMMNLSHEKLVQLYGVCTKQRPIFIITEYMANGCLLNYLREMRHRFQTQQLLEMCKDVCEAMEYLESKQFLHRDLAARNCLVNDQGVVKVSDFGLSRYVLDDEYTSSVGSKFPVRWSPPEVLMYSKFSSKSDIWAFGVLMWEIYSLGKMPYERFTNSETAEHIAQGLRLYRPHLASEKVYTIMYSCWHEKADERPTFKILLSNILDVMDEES

On to `CCNC(=O)Nc1cc(-c2cccc(N3CCc4cc(N(C)C)ccc4C3=O)c2CO)cn(C)c1=O`, for which the IC50 was determined as 1.6 µM.
With `CNC(=O)Nc1cc(-c2ccc(F)c(N3CCc4cc(N(C)C)ccc4C3=O)c2CO)cn(C)c1=O`, the 50% inhibitory concentration (IC50) is 3.7 µM.
As to `CN(C)c1ccc2c(c1)CCN(c1cccc(-c3cc(Nc4ccc(N5CCOCC5)cn4)c(=O)n(C)c3)c1CO)C2=O`, the IC50 was 0.19 µM.
Take `CN(C)c1ccc2c(c1)CCN(c1cc(F)cc(-c3cc(Nc4ccc(N5CCOCC5)cn4)c(=O)n(C)c3)c1CO)C2=O`: the IC50 was 0.2 µM.
Turning to `CN(C)c1ccc2c(=O)n(-c3cccc(-c4cc(Nc5ccc(C(=O)N6CCOCC6)cn5)c(=O)n(C)c4)c3CO)ccc2c1`, the IC50 was found to be 0.28 µM.
In the case of `CN1CCN(c2ccc(Nc3cc(-c4cccc(N5CCc6cc(C(C)(C)C#N)ccc6C5=O)c4CO)cn(C)c3=O)nc2)CC1`, the 50% inhibitory concentration (IC50) stood at 0.06 µM.
